In patent US12577247B2 (BUGWORKS RESEARCH, INC., priority 2021, dated 2026):

Assays:
A2B receptor [1] = target: T1, A2B receptor (Homo sapiens, UniProt P29275); experiment: A2bR antagonism IC50, cAMP TR-FRET in HEK-293 cells, high concentration of adenosine (30 μM); conditions: A2BR IC50 (nM) (@30 μM Adenosine), HEK-293 cells expressing A2B receptor; agonist adenosine 30 μM; 2% HSA; inhibition of cAMP;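 further: compounds preincubated 10 min with cells, then adenosine stimulation 30 min at room temperature in buffer with Rolipram 100 µM and EHNA 30 µM, TR-FRET read after 1 h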
T1 sequence (P29275 1-332): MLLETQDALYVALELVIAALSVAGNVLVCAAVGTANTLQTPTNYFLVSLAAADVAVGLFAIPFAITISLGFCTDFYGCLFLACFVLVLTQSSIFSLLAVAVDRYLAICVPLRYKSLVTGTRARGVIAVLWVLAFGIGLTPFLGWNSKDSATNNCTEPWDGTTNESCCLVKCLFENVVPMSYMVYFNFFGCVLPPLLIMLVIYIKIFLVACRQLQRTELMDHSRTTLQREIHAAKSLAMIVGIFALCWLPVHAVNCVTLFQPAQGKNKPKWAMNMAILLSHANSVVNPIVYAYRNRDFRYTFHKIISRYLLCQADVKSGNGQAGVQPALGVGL

A2B receptor [2] = target: T1, A2B receptor; experiment: A2bR antagonism IC50, cAMP TR-FRET (Lance Ultra) in HEK-293 cells, NECA as agonist; assay type: cell-based; design: host or cells: HEK-293; conditions: HEK-293 cells expressing A2B receptor; agonist NECA 30 nM (EC90); inhibition of cAMP
A2A receptor [3] = target: T2, A2A receptor (Homo sapiens, UniProt P29274); experiment: A2aR antagonism IC50, cAMP TR-FRET in HEK-293 cells, high concentration of adenosine (30 μM); assay type: cell-based; conditions: HEK-293 cells expressing A2A receptor, agonist adenosine 30 μM, 2% HSA, inhibition of cAMP;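 further: compounds added 10 min before adenosine, then 30 min stimulation at room temperature in buffer with 100 µM rolipram and 30 µM EHNA, signal read 1 h after detection reagents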
T2 construct: host or cells: HEK-293
T2 sequence (P29274 whole entry): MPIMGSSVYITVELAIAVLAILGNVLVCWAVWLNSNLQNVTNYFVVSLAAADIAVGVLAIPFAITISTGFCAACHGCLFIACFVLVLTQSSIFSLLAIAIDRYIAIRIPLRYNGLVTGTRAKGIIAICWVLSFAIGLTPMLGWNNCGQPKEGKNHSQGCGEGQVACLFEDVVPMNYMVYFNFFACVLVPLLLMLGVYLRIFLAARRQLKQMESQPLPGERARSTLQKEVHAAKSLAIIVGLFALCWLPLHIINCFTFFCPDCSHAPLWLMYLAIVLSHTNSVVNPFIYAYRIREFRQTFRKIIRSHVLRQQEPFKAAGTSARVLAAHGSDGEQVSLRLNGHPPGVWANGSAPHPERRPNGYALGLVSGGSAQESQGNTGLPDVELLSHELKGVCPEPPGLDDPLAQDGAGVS

A2A receptor [4] = target: T2, A2A receptor; experiment: A2aR antagonism IC50, cAMP TR-FRET (Lance Ultra) in HEK-293 cells, NECA as agonist; assay type: cell-based; conditions: A2AR IC50 (nM) (@5 nM NECA), HEK-293 cells expressing A2A receptor; agonist NECA 5 nM (EC90); inhibition of cAMP;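 further: compounds tested from 10 µM down to 0.08 nM in buffer with Rolipram at room temperature, TR-FRET cAMP signal read 1 h after adding Eu-cAMP tracer and ULight anti-cAMP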
Description: Adenosine A2A receptors and Adenosine A2B receptors induce the production of cAMP when activated/stimulated by an agonist like adenosine or 5′-(N-Ethylcarboxamido) adenosine (NECA). A Time-Resolved Fluorescence Energy Transfer (TR-FRET) assay was used to show the inhibition of this cAMP production in HEK cells upon treatment with compounds of the Formula I of the present disclosure.
HEK-293 cells expressing A2A receptor (#ES-011-C) or A2B receptor (#ES 013-C) were obtained from PerkinElmer. Cells were maintained in DMEM medium supplemented with 10% FBS and 200 μg/mL of G418 at 37° C. and 5% CO2. The cells were cultured in antibiotic free medium for a period of 16-20 hours prior to the assay. All subsequent steps of the assay are performed at room temperature (22-24° C.). The cells were harvested at about 80% confluency by gentle flushing with PBS, recovered by centrifugation and resuspended in stimulation buffer at the concentration of 5.0×10^6 cells/mL.
The assays were conducted in a stimulation buffer containing 1×DMEM, 5 mM HEPES, 0.1% BSA stabilizer and 20-30 μM Rolipram. Serial dilutions of compounds were made in stimulation buffer to achieve a final concentration of high micromolar (10 μM to 0.08 nM) in the reaction volume of 10 μL. The total reaction volume was 10 μL (5 μL of cells, 2.5 μL of antagonist and 2.5 μL of agonist). The stimulation was ended, and the reaction completed by adding 5 μL of 4× Eu-cAMP tracer working solution and 5 μL of 4× ULight-anti-cAMP working solution. The TR-FRET signal was measured after 1-hour incubation using a Tecan M1000 reader.

[5] = read-out: A2AR IC50 (nM) (@30 μM Adenosine)

Row | Structure (SMILES) | IC50 (A2B receptor [1]) [nM] | IC50 (A2B receptor [2]) [nM] | IC50 (A2A receptor [3]; [5]) [nM] | IC50 (A2A receptor [4]) [nM] | IC50 (A2A receptor [3]; A2AR IC50 (nM) (@30 μM Adenosine))
1 | CCc1c(C)nn2c(N)c(C#N)c(NCCc3ccn(C4CCC4CO)n3)nc12 (racemic) [Example 77, (+−)-7-amino-3-ethyl-5-((2-(1-(2-(hydroxymethyl)cyclobutyl)-1H-pyrazol-3-yl)ethyl)amino)-2-methylpyrazolo[1,5-a]pyrimidine-6-carbonitrile] | 700 | 2 | 81 | 0.1 | 
2 | CCc1c(C)nn2c(N)c(C#N)c(NCCc3cccc(C)n3)nc12 [Example 17, 7-Amino-3-ethyl-2-methyl-5-((2-(6-methylpyridin-2-yl)ethyl)amino) pyrazolo[1,5-a]pyrimidine-6-carbonitrile] | 2380 | 0.87 | 260 | 0.15 | 
3 | Cc1nn2c(N)c(C#N)c(NCCc3cccc(CO)n3)nc2c1Cl [Example 33, 7-amino-3-chloro-5-((2-(6-(hydroxymethyl)pyridin-2-yl)ethyl)amino)-2-methylpyrazolo[1,5-a]pyrimidine-6-carbonitrile] | 1420 | 0.97 | 206 | 0.38 | 
4 | Cc1nn2c(N)c(C#N)c(NCCc3cccc(C4(CO)CC4)n3)nc2c1Cl [Example 34, 7-amino-3-chloro-5-((2-(6-(1-(hydroxymethyl)cyclopropyl)pyridin-2-yl)ethyl)amino)-2-methylpyrazolo[1,5-a]pyrimidine-6-carbonitrile] |  | 6 | 160 | 0.4 | 
5 | Cc1nn2c(N)c(C#N)c(NCCc3ccn(C4(CO)CC4)n3)nc2c1Cl [Example 37, 7-amino-3-chloro-5-((2-(1-(1-(hydroxymethyl)cyclopropyl)-1H-pyrazol-3-yl)ethyl)amino)-2-methylpyrazolo[1,5-a]pyrimidine-6-carbonitrile] | 1770 | 7 | 78 | 0.12 | 
6 | CCc1c(C(F)F)nn2c(N)c(C#N)c(NCCc3ccn(C(C)(C)CO)n3)nc12 [Example 48, 7-amino-2-(difluoromethyl)-3-ethyl-5-((2-(1-(1-hydroxy-2-methylpropan-2-yl)-1H-pyrazol-3-yl)ethyl)amino) pyrazolo[1,5-a]pyrimidine-6-carbonitrile] |  | 51 | 7660 | 2.2 | 
7 | Cc1nn2c(N)c(C#N)c(NCCc3cccc(C4(CO)CC4)n3)nc2c1C [Example 49, 7-amino-5-((2-(6-(1-(hydroxymethyl)cyclopropyl)pyridin-2-yl)ethyl)amino)-2,3-dimethylpyrazolo[1,5-a]pyrimidine-6-carbonitrile] | 4260 | 6 | 635 | 0.3 | 
8 | Cc1nn2c(N)c(C#N)c(NCCc3cccc(C4CC4CO)n3)nc2c1C (stereo not shown) [Example 51, 7-amino-5-((2-(6-(2-(hydroxymethyl)cyclopropyl)pyridin-2-yl)ethyl)amino)-2,3-dimethylpyrazolo[1,5-a]pyrimidine-6-carbonitrile] | 1290 | 2.1 | 348 | 0.17 | 
9 | Cc1nn2c(N)c(C#N)c(NCCc3ccn(C4(CO)CC4)n3)nc2c1C [Example 55, 7-amino-5-((2-(1-(1-(hydroxymethyl)cyclopropyl)-1H-pyrazol-3-yl)ethyl)amino)-2,3-dimethylpyrazolo[1,5-a]pyrimidine-6-carbonitrile] | 3790 | 8.6 | 250 | 0.74 | 
10 | CCc1c(C(F)F)nn2c(N)c(C#N)c(NCCc3ccn(C4(CO)CC4)n3)nc12 [Example 58, 7-amino-2-(difluoromethyl)-3-ethyl-5-((2-(1-(1-(hydroxymethyl)cyclopropyl)-1H-pyrazol-3-yl)ethyl)amino) pyrazolo[1,5-a]pyrimidine-6-carbonitrile] | 12200 | 4.7 | 756 | 0.22 | 
11 | Cc1nn2c(N)c(C#N)c(NCCc3nc(C4(CO)CC4)cs3)nc2c1Cl [Example 61, 7-amino-3-chloro-5-((2-(4-(1-(hydroxymethyl)cyclopropyl)thiazol-2-yl)ethyl)amino)-2-methylpyrazolo[1,5-a] pyrimidine-6-carbonitrile] |  | 24 |  | < 1 | 574

Continued, in another order:

Row | IC50 (A2B receptor [1]) [nM] | IC50 (A2B receptor [2]) [nM] | IC50 (A2A receptor [3]; [5]) [nM] | IC50 (A2A receptor [4]) [nM] | Structure (SMILES) | IC50 (A2A receptor [3]; A2AR IC50 (nM) (@30 μM Adenosine))
12 | 2130 | 7.3 | 452 | 0.5 | CCc1c(C)nn2c(N)c(C#N)c(NCCc3ccn(C(C)(C)CO)n3)nc12 [Example 32, 7-amino-3-ethyl-5-((2-(1-(1-hydroxy-2-methylpropan-2-yl)-1H-pyrazol-3-yl)ethyl)amino)-2-methylpyrazolo[1,5-a]pyrimidine-6-carbonitrile] | 
13 |  | 22 | 250 | 0.8 | Cc1nn2c(N)c(C#N)c(NCCc3ccn(C(C)(C)CO)n3)nc2c1Cl [Example 36, 7-amino-3-chloro-5-((2-(1-(1-hydroxy-2-methylpropan-2-yl)-1H-pyrazol-3-yl)ethyl)amino)-2-methylpyrazolo[1,5-a]pyrimidine-6-carbonitrile] | 
14 |  | 4.4 | 178 | 0.1 | Cc1nn2c(N)c(C#N)c(NCCc3cccc(C4CC4CO)n3)nc2c1Cl (stereo not shown) [Example 38, 7-amino-3-chloro-5-((2-(6-(2-(hydroxymethyl)cyclopropyl)pyridin-2-yl)ethyl)amino)-2-methylpyrazolo[1,5-a]pyrimidine-6-carbonitrile] | 
15 | 2380 | 3.6 | 260 | < 0.1 | CCc1cccc(CCNc2nc3c(C)c(C)nn3c(N)c2C#N)n1 [Example 40, 7-amino-5-((2-(6-ethylpyridin-2-yl)ethyl)amino)-2,3-dimethyl pyrazolo [1,5-a] pyrimidine-6-carbonitrile] | 
16 | 650 | 2.9 | 935 | 0.58 | CCc1c(C)nn2c(N)c(C#N)c(NCCc3cccc(CO)n3)nc12 [Example 45, 7-amino-3-ethyl-5-((2-(6-(hydroxymethyl)pyridin-2-yl)ethyl)amino)-2-methylpyrazolo[1,5-a] pyrimidine-6-carbonitrile] | 
17 | 2370 | 3.6 | 2160 | 0.2 | CCc1c(C)nn2c(N)c(C#N)c(NCCc3cccc(C4(CO)CC4)n3)nc12 [Example 50, 7-amino-3-ethyl-5-((2-(6-(1-(hydroxymethyl)cyclopropyl)pyridin-2-yl)ethyl)amino)-2-methylpyrazolo[1,5-a] pyrimidine-6-carbonitrile] | 
18 |  | 27 | 227 | < 1 | Cc1nn2c(N)c(C#N)c(NCCc3cccc(C(C)(C)CO)n3)nc2c1Cl [Example 65, 7-amino-3-chloro-5-((2-(6-(1-hydroxy-2-methylpropan-2-yl)pyridin-2-yl)ethyl)amino)-2-methylpyrazolo[1,5-a]pyrimidine-6-carbonitrile] | 
19 | 2550 | 19 | 43 | 0.2 | Cc1nn2c(N)c(C#N)c(NCCc3cc(C)n(C4(CO)CC4)n3)nc2c1C [Example 86, 7-amino-5-((2-(1-(1-(hydroxymethyl)cyclopropyl)-5-methyl-1H-pyrazol-3-yl)ethyl)amino)-2,3-dimethylpyrazolo[1,5-a]pyrimidine-6-carbonitrile] | 
